We go through 26 molecules from PubChem BioAssay (NCI).

Experiment in all cases: DTP human tumour cell line panel, 48 h
Assay [1] deals with SK-MEL-5 melanoma.
In assay [2] the test system is MDA-MB-435.
For assay [3], the system named is T-47D breast.
Assay [4] deals with OVCAR-4 ovarian.
The test system of assay [5] is SF-295 CNS.
The test system of assay [6] is U251 CNS.
For assay [7], the system named is SR leukemia.
Assay [8] has as its system OVCAR-5 ovarian.
The subject of assay [9] is HCT-15 colon.
The test system of assay [10] is SK-MEL-2 melanoma.

SMILES strings stand for the structures.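 Exposure lasted 48 hours, with cells grown in 96-well plates and compounds tested at five concentrations. Here, GI50 denotes the concentration required for 50% inhibition of growth. TGI denotes the concentration required for complete inhibition of growth.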

Regarding `CC(C)(C)c1cc(C(C)(C)C)c2sc(=O)oc2c1O`, the TGI in assay [1] amounted to 27.9 µM; in assay [2] it was 25.6 µM; in assay [3], 19.8 µM; in assay [4], 27.6 µM; in assay [5], 23.9 µM; in assay [6], 27.8 µM. Besides, the TGI came out at 63.6 µM in assay [7], 33.4 µM in assay [8], 25.3 µM in assay [9] and 29.1 µM in [10].
Consider `Cc1cc(C)n(C(=CC(=O)C(Cl)Cl)n2nc(C)cc2C)n1`, for which the TGI in assay [1] was 20.3 µM; in assay [2], 11 µM; in assay [3], 28.6 µM; in assay [4] it was more than 100 µM; in [5], 31.7 µM; in [6], 20.4 µM. The TGI amounted to 5.69 µM in [7], 14.5 µM in assay [8], 10.7 µM in [9] and 25.7 µM in assay [10].
As to `COC(=O)[C@]1(c2cc3ccccc3[nH]2)CC2CNC1C1OC(C)(C)OC21` (stereo not given in full), the TGI in assay [1], in [2], in [3], in assay [4], in assay [5] and in [6] was more than 100 µM throughout. For the same molecule, the TGI in assay [7], in [8], in assay [9] and in assay [10] was more than 100 µM each time.
For `COc1ccc(Nc2nc(N)c(C(=O)c3ccco3)s2)cc1`, the TGI in assay [1] was 99.7 µM; in assay [2], 16.9 µM; in assay [3], more than 100 µM; in [4], more than 89.9 µM; in [5], more than 100 µM; in [6], more than 100 µM. The TGI is more than 33.8 µM in [7], more than 100 µM in assay [8], more than 100 µM in assay [9] and more than 83.9 µM in assay [10].
`O=C(Nc1nnc(-c2ccccc2)o1)C(SC(=S)N1CCCC1)c1ccccc1` (stereo not given): the concentration for total growth inhibition (TGI) in assay [1] is 38.2 µM; in assay [2], more than 100 µM; in assay [3], more than 100 µM; in [4] it was more than 100 µM; in assay [5], more than 100 µM; in assay [6], more than 100 µM. The TGI in assay [7], in [8], in assay [9] and in [10] was more than 100 µM each time.
Turning to `Clc1ccc(C2=CC(c3ccccc3)N3C(=N[C@H]4CCCC[C@@H]43)N2)cc1` (stereo not given in full), the TGI stood at 3.35 µM in assay [1]; 20.4 µM in assay [2]; 21.6 µM in [3]; 18.4 µM in assay [4]; 20.3 µM in assay [5]; 17.2 µM in assay [6]. In addition, the TGI was 5.98 µM in assay [7], 23.6 µM in assay [8], 15.5 µM in assay [9] and 27.2 µM in [10].
Take `C[N+](C)([O-])C12CC3CC(CC(C3)C1)C2`: the TGI was more than 100 µM in assay [1]; more than 100 µM in [2]; 85.7 µM in [3]; more than 100 µM in assay [4]; more than 100 µM in assay [5]; more than 100 µM in assay [6]. Also, the TGI in [7], in assay [8], in [9] and in assay [10] was more than 100 µM in each case.
In the case of `O=[N+]([O-])C(/C=C(\Cl)[N+](=O)[O-])=C(Nc1ccccc1)Nc1ccccc1`, the TGI in assay [1] stood at 26.2 µM; in assay [2], 17.4 µM; in assay [3] it was 37.3 µM; in assay [4], 20.6 µM; in assay [5] it was 31.6 µM; in assay [6], 27.6 µM. Moreover, the TGI in assay [7] was found to be 6.02 µM; in assay [8], 20.1 µM; in assay [9], 22.3 µM; in assay [10], 35.8 µM.
Consider `COc1cc(-c2cc(OC)c(OC)c3ccc(Br)cc23)c2cc(Br)ccc2c1OC`, for which the TGI in [1] was more than 100 µM; in [2] it was 46.1 µM; in [3], 95.4 µM; in [4] it was 31.1 µM; in assay [5], 43.8 µM; in [6] it was 37.7 µM. Further, the TGI in assay [7] was 86 µM; in assay [8] it was 39.2 µM; in assay [9], more than 100 µM; in assay [10], 56 µM.
Consider `CCOC(=O)/C=C(/OCC)[C@@H]1C(C(=O)c2ccc(Cl)cc2)[C@@H]1/C(=C\C(=O)OCC)OCC` (stereo not given in full), for which the TGI in [1] was more than 59.9 µM; in [2], more than 83.8 µM; in [3] it was more than 100 µM; in assay [4] it was more than 100 µM; in assay [5], more than 88.9 µM; in [6], more than 100 µM. The TGI in assay [7], in assay [8], in [9] and in assay [10] was more than 100 µM each time.
Turning to `O=C(CCCCCCCCC(=O)N1C(=O)CC(=O)N(c2ccc(Cl)cc2)C1=S)N1C(=O)CC(=O)N(c2ccc(Cl)cc2)C1=S`, the TGI in assay [1], in assay [2], in assay [3], in assay [4], in assay [5] and in assay [6] was more than 100 µM each time. Also, the TGI is 83.7 µM in assay [7], more than 100 µM in assay [8], more than 100 µM in assay [9] and more than 100 µM in assay [10].
For the molecule `Oc1ccccc1/C=N/c1nc(-c2ccccc2)cs1`, the GI50 is 47.6 µM in assay [1]; 29.7 µM in [2]; more than 100 µM in assay [3]; 33.7 µM in [4]; more than 100 µM in assay [5]; 28.5 µM in [6]. Further, the GI50 in [7] is 24.3 µM; in assay [8], 32.2 µM; in [9], 29.4 µM; in assay [10] it was more than 100 µM. Besides, the TGI in assay [1], in [2], in assay [3], in assay [4], in [5] and in assay [6] was more than 100 µM throughout. In addition, the TGI in assay [7] was 79.5 µM; in [8] it was more than 100 µM; in [9], more than 100 µM; in assay [10], more than 100 µM.
On to `COc1cc2c(cc1OC)C(C1CC1)ON(C)CC2` (stereo not given), for which the TGI in assay [1], in assay [2], in assay [3], in [4], in assay [5] and in assay [6] was more than 100 µM throughout. Also, the TGI in [7], in assay [8], in assay [9] and in assay [10] was more than 100 µM throughout.
`COC1=C(OC)C(=O)C(Cc2c(-c3ccccc3)nc3sc(Cl)cn23)=C(C)C1=O`: the TGI was 29.2 µM in assay [1]; 33.1 µM in [2]; more than 100 µM in [3]; 18.8 µM in [4]; 34.3 µM in assay [5]; 40.1 µM in assay [6]. The TGI in assay [7] worked out at 72.1 µM; in assay [8], 56.5 µM; in [9] it was 36.1 µM; in assay [10], 36.5 µM.
As to `O=c1c2ccccc2n2nnc3ccc(NCCNCCO)c1c32`, the TGI came to 4.37 µM in assay [1]; 10.8 µM in assay [2]; 29.1 µM in [3]; 6.34 µM in assay [4]; 9.82 µM in [5]; 6.73 µM in assay [6]. For the same molecule, the TGI in assay [7] amounted to 8.05 µM; in [8], 7 µM; in [9] it was 9.42 µM; in [10], 10.5 µM.
For `CCOC(=O)NCC(=O)NCC(=O)NCC(N)=O`, the TGI in assay [1], in assay [2], in assay [3], in assay [4], in assay [5] and in assay [6] was more than 100 µM throughout. The TGI in assay [7], in [8], in assay [9] and in assay [10] was more than 100 µM throughout.
In the case of `CC1(O)CC23CC(O)C4(O)C(CC(O)C4(C)C)C(C)(O)C2CCC1C3O` (stereo not given), the TGI in assay [1], in assay [2], in assay [3], in [4], in [5] and in [6] was more than 100 µM throughout. Moreover, the TGI in [7], in assay [8], in [9] and in assay [10] was more than 100 µM throughout.
For `COc1cc2ccc(C(C)NCC#N)cc2cc1OC` (stereo not given), the concentration for total growth inhibition (TGI) in assay [1], in assay [2], in assay [3], in assay [4], in assay [5] and in assay [6] was more than 100 µM each time. For the same molecule, the TGI in assay [7], in [8], in assay [9] and in assay [10] was more than 100 µM each time.
In the case of `Cc1cc(C)n(C(C)(C(=O)Cc2ccccc2)n2nc(C)cc2C)n1`, the TGI in [1], in assay [2], in [3], in [4], in assay [5] and in assay [6] was more than 100 µM throughout. Further, the concentration for total growth inhibition (TGI) in assay [7], in [8], in assay [9] and in [10] was more than 100 µM each time.
For `CC(C)(C)[C@H]1NC(=O)CN1C(=O)OCc1ccccc1`, the TGI in assay [1], in assay [2], in [3], in [4], in assay [5] and in assay [6] was more than 100 µM in each case. The TGI in assay [7], in [8], in assay [9] and in assay [10] was more than 100 µM throughout.
As to `CCOC(=O)/C(=C/c1cn(C(C)=O)c2ccccc12)P(=O)(OC)OC`, the TGI in assay [1] was more than 100 µM; in assay [2] it was more than 100 µM; in [3] it was 60.5 µM; in [4] it was more than 100 µM; in assay [5], more than 100 µM; in [6] it was more than 100 µM. Besides, the TGI was 73.8 µM in assay [7], more than 100 µM in assay [8], more than 100 µM in assay [9] and more than 100 µM in assay [10].
Consider `C=C(CCC(=O)N(CCc1c[nH]c2ccccc12)C(=O)c1ccccc1CSCC)C(=O)OC`, for which the TGI in [1], in assay [2], in [3], in assay [4], in assay [5] and in [6] was more than 100 µM in each case. Besides, the TGI in [7], in assay [8], in assay [9] and in assay [10] was more than 100 µM throughout.
As for `N#Cc1cc2c(n(C3OC(CO)C(O)C(O)C3O)c1=S)CCC2` (stereo not given), the total growth inhibition concentration (TGI) in assay [1], in assay [2], in [3], in assay [4], in assay [5] and in assay [6] was more than 100 µM throughout. For the same molecule, the TGI in [7], in [8], in assay [9] and in assay [10] was more than 100 µM throughout.
Turning to `COc1ccccc1-c1cc(=O)c2cccnc2[nH]1`, the TGI in assay [1] is more than 100 µM; in [2] it was 60.5 µM; in assay [3] it was more than 100 µM; in assay [4], more than 100 µM; in [5], more than 100 µM; in [6], more than 100 µM. The total growth inhibition concentration (TGI) in assay [7], in assay [8], in [9] and in assay [10] was more than 100 µM throughout.
Regarding `CCOC1OC(C)(C=C(C#N)C#N)CCC1C` (stereo not given), the TGI in assay [1], in assay [2], in assay [3], in [4], in assay [5] and in [6] was more than 100 µM each time. Moreover, the total growth inhibition concentration (TGI) was more than 76.2 µM in assay [7], more than 100 µM in assay [8], more than 71.2 µM in [9] and more than 100 µM in assay [10].
Take `Clc1ccc(-c2nn3c(COc4ccc(OCc5nnc6sc(-c7ccc(Cl)cc7)nn56)c(Cl)c4)nnc3s2)cc1`: the TGI was 80.2 µM in assay [1]; more than 100 µM in [2]; more than 100 µM in assay [3]; more than 100 µM in assay [4]; more than 100 µM in assay [5]; 54.7 µM in [6]. The TGI in assay [7] was 61.4 µM; in assay [8] it was 71.7 µM; in assay [9] it was more than 100 µM; in [10], more than 100 µM.

In general, TGI refers to the concentration at which net growth stops. Read a low TGI as greater sensitivity of the cells. Broadly, the GI50 is the concentration giving 50% growth inhibition.
